The text below walks through data of ChEMBL document CHEMBL5360545, “Multitargeted drug design strategy for discovery of short-peptide-based HIV-1 entry inhibitors with high potency” (Eur J Med Chem, 2023).

Side chains are listed from the residue outwards. Peptide text beside a SMILES is read from it. * marks the point of attachment. PEG24 = NCCOCCOCCOCCOCCOCCOCCOCCOCCOCCOCCOCCOCCOCCOCCOCCOCCOCCOCCOCCOCCOCCOCCOCCOCCC(=O)O; X3 = Cc1ccc(N(CCCN2CCN(Cc3ccc(F)cc3)CC2)C(=O)C2CCN(C(=O)COCC(=O)*)CC2)cc1Cl; X1 = CC(=O)N1CCC(C(=O)N(CCCN2CCC(Cc3ccc(C(=O)*)cc3)CC2)c2ccc(C)c(Cl)c2)CC1; PEG12 = NCCOCCOCCOCCOCCOCCOCCOCCOCCOCCOCCOCCOCCC(=O)O; PEG8 = NCCOCCOCCOCCOCCOCCOCCOCCOCCC(=O)O; PEG4 = NCCOCCOCCOCCOCCC(=O)O

The assay relates to Human immunodeficiency virus 1. In words: Antiviral activity against HIV-1 Bal-R5 infected in human CEMx174 5.25M7 cells assessed as reduction in p24 antigen level measured after 4 days by ELISA. Particulars: Human immunodeficiency virus 1, Bal-R5, CEMx174 5.25M7, 96 h. It counts as functional, organism-based. On the technique in general: ELISA stands for enzyme-linked immunosorbent assay.
The term EC50 denotes the midpoint of the concentration-response curve. For the compound `CC[C@H](C)[C@H](NC(C)=O)C(=O)N[C@@H](CCC(=O)O)C(=O)N[C@@H](CCC(=O)O)C(=O)N[C@@H](CC(C)C)C(=O)N[C@H](C(=O)N[C@@H](CCCNC(=N)N)C(=O)N[C@@H](C)C(=O)N[C@@H](C)C(=O)N[C@@H](CCC(N)=O)C(=O)N[C@@H](CCC(=O)O)C(=O)N[C@@H](CCC(N)=O)C(=O)N[C@@H](CCC(N)=O)C(=O)N[C@@H](CCCNC(=N)N)C(=O)N[C@@H](CCCCN)C(=O)N[C@@H](CC(N)=O)C(=O)N[C@@H](CCC(=O)O)C(=O)N[C@@H](CCC(=O)O)C(=O)N[C@@H](C)C(=O)N[C@@H](CC(C)C)C(=O)N[C@@H](CCCNC(=N)N)C(=O)N[C@@H](CCC(=O)O)C(=O)N[C@@H](CC(C)C)C(=O)N[C@@H](CCCCNC(=O)CCOCCOCCOCCOCCOCCOCCOCCOCCOCCOCCOCCOCCNC(=O)COCC(=O)N1CCC(C(=O)N(CCCN2CCN(Cc3ccc(F)cc3)CC2)c2ccc(C)c(Cl)c2)CC1)C(N)=O)[C@@H](C)CC` (Ac-IEELIRAAQEQQRKNEEALRELK([PEG12-X3])-NH2), the EC50 is 6.26 nM.
With `CC[C@H](C)[C@H](NC(C)=O)C(=O)N[C@@H](CCC(=O)O)C(=O)N[C@@H](CCC(=O)O)C(=O)N[C@@H](CC(C)C)C(=O)N[C@H](C(=O)N[C@@H](CCCNC(=N)N)C(=O)N[C@@H](C)C(=O)N[C@@H](C)C(=O)N[C@@H](CCC(N)=O)C(=O)N[C@@H](CCC(=O)O)C(=O)N[C@@H](CCC(N)=O)C(=O)N[C@@H](CCC(N)=O)C(=O)N[C@@H](CCCNC(=N)N)C(=O)N[C@@H](CCCCN)C(=O)N[C@@H](CC(N)=O)C(=O)N[C@@H](CCC(=O)O)C(=O)N[C@@H](CCC(=O)O)C(=O)N[C@@H](C)C(=O)N[C@@H](CC(C)C)C(=O)N[C@@H](CCCNC(=N)N)C(=O)N[C@@H](CCC(=O)O)C(=O)N[C@@H](CC(C)C)C(=O)N[C@@H](CCCCNC(=O)CCOCCOCCOCCOCCOCCOCCOCCOCCOCCOCCOCCOCCOCCOCCOCCOCCOCCOCCOCCOCCOCCOCCOCCOCCNC(=O)c1ccc(CC2CCN(CCCN(C(=O)C3CCN(C(C)=O)CC3)c3ccc(C)c(Cl)c3)CC2)cc1)C(N)=O)[C@@H](C)CC` (Ac-IEELIRAAQEQQRKNEEALRELK([PEG24-X1])-NH2), the EC50 was 0.26 nM.
Turning to `CC[C@H](C)[C@H](NC(=O)[C@H](CCCCN)NC(=O)[C@H](CCC(N)=O)NC(=O)[C@H](CCC(=O)O)NC(=O)[C@H](Cc1c[nH]c2ccccc12)NC(C)=O)C(=O)N[C@@H](CCC(=O)O)C(=O)N[C@@H](CCC(=O)O)C(=O)N[C@@H](CC(C)C)C(=O)N[C@@H](CC(C)C)C(=O)N[C@@H](CCCCN)C(=O)N[C@@H](CCCCN)C(=O)N[C@@H](C)C(=O)N[C@@H](CCC(=O)O)C(=O)N[C@@H](CCC(=O)O)C(=O)N[C@@H](CCC(N)=O)C(=O)N[C@@H](CCC(N)=O)C(=O)N[C@@H](CCCCN)C(=O)N[C@@H](CCCCN)C(=O)N[C@@H](CC(N)=O)C(=O)N[C@@H](CCC(=O)O)C(=O)N[C@@H](CCC(=O)O)C(=O)N[C@@H](CCC(=O)O)C(=O)N[C@@H](CC(C)C)C(=O)N[C@@H](CCCCN)C(=O)N[C@@H](CCCCN)C(=O)N[C@@H](CC(C)C)C(=O)N[C@@H](CCC(=O)O)C(=O)N[C@@H](CCCCN)C(=O)N[C@@H](CCCCNC(=O)c1ccc(CC2CCN(CCCN(C(=O)C3CCN(C(C)=O)CC3)c3ccc(C)c(Cl)c3)CC2)cc1)C(N)=O` (Ac-WEQKIEELLKKAEEQQKKNEEELKKLEKK(X1)-NH2), the EC50 is 1.75 nM.
For `CC[C@H](C)[C@H](NC(=O)[C@H](CCCCN)NC(=O)[C@H](CCC(N)=O)NC(=O)[C@H](CCC(=O)O)NC(=O)[C@H](Cc1c[nH]c2ccccc12)NC(C)=O)C(=O)N[C@@H](CCC(=O)O)C(=O)N[C@@H](CCC(=O)O)C(=O)N[C@@H](CC(C)C)C(=O)N[C@@H](CC(C)C)C(=O)N[C@@H](CCCCN)C(=O)N[C@@H](CCCCN)C(=O)N[C@@H](C)C(=O)N[C@@H](CCC(=O)O)C(=O)N[C@@H](CCC(=O)O)C(=O)N[C@@H](CCC(N)=O)C(=O)N[C@@H](CCC(N)=O)C(=O)N[C@@H](CCCCN)C(=O)N[C@@H](CCCCN)C(=O)N[C@@H](CC(N)=O)C(=O)N[C@@H](CCC(=O)O)C(=O)N[C@@H](CCC(=O)O)C(=O)N[C@@H](CCC(=O)O)C(=O)N[C@@H](CC(C)C)C(=O)N[C@@H](CCCCN)C(=O)N[C@@H](CCCCN)C(=O)N[C@@H](CC(C)C)C(=O)N[C@@H](CCC(=O)O)C(=O)N[C@@H](CCCCN)C(=O)N[C@@H](CCCCNC(=O)CCOCCOCCOCCOCCNC(=O)c1ccc(CC2CCN(CCCN(C(=O)C3CCN(C(C)=O)CC3)c3ccc(C)c(Cl)c3)CC2)cc1)C(N)=O` (Ac-WEQKIEELLKKAEEQQKKNEEELKKLEKK([PEG4-X1])-NH2), the EC50 turned out to be 1.11 nM.
In the case of `CC[C@H](C)[C@H](NC(=O)[C@H](CCCCN)NC(=O)[C@H](CCC(N)=O)NC(=O)[C@H](CCC(=O)O)NC(=O)[C@H](Cc1c[nH]c2ccccc12)NC(C)=O)C(=O)N[C@@H](CCC(=O)O)C(=O)N[C@@H](CCC(=O)O)C(=O)N[C@@H](CC(C)C)C(=O)N[C@@H](CC(C)C)C(=O)N[C@@H](CCCCN)C(=O)N[C@@H](CCCCN)C(=O)N[C@@H](C)C(=O)N[C@@H](CCC(=O)O)C(=O)N[C@@H](CCC(=O)O)C(=O)N[C@@H](CCC(N)=O)C(=O)N[C@@H](CCC(N)=O)C(=O)N[C@@H](CCCCN)C(=O)N[C@@H](CCCCN)C(=O)N[C@@H](CC(N)=O)C(=O)N[C@@H](CCC(=O)O)C(=O)N[C@@H](CCC(=O)O)C(=O)N[C@@H](CCC(=O)O)C(=O)N[C@@H](CC(C)C)C(=O)N[C@@H](CCCCN)C(=O)N[C@@H](CCCCN)C(=O)N[C@@H](CC(C)C)C(=O)N[C@@H](CCC(=O)O)C(=O)N[C@@H](CCCCN)C(=O)N[C@@H](CCCCNC(=O)CCOCCOCCOCCOCCOCCOCCOCCOCCNC(=O)c1ccc(CC2CCN(CCCN(C(=O)C3CCN(C(C)=O)CC3)c3ccc(C)c(Cl)c3)CC2)cc1)C(N)=O` (Ac-WEQKIEELLKKAEEQQKKNEEELKKLEKK([PEG8-X1])-NH2), the EC50 was found to be 1.52 nM.
Then `CC[C@H](C)[C@H](NC(=O)[C@H](CCCCN)NC(=O)[C@H](CCC(N)=O)NC(=O)[C@H](CCC(=O)O)NC(=O)[C@H](Cc1c[nH]c2ccccc12)NC(C)=O)C(=O)N[C@@H](CCC(=O)O)C(=O)N[C@@H](CCC(=O)O)C(=O)N[C@@H](CC(C)C)C(=O)N[C@@H](CC(C)C)C(=O)N[C@@H](CCCCN)C(=O)N[C@@H](CCCCN)C(=O)N[C@@H](C)C(=O)N[C@@H](CCC(=O)O)C(=O)N[C@@H](CCC(=O)O)C(=O)N[C@@H](CCC(N)=O)C(=O)N[C@@H](CCC(N)=O)C(=O)N[C@@H](CCCCN)C(=O)N[C@@H](CCCCN)C(=O)N[C@@H](CC(N)=O)C(=O)N[C@@H](CCC(=O)O)C(=O)N[C@@H](CCC(=O)O)C(=O)N[C@@H](CCC(=O)O)C(=O)N[C@@H](CC(C)C)C(=O)N[C@@H](CCCCN)C(=O)N[C@@H](CCCCN)C(=O)N[C@@H](CC(C)C)C(=O)N[C@@H](CCC(=O)O)C(=O)N[C@@H](CCCCN)C(=O)N[C@@H](CCCCNC(=O)CCOCCOCCOCCOCCOCCOCCOCCOCCOCCOCCOCCOCCNC(=O)c1ccc(CC2CCN(CCCN(C(=O)C3CCN(C(C)=O)CC3)c3ccc(C)c(Cl)c3)CC2)cc1)C(N)=O` (Ac-WEQKIEELLKKAEEQQKKNEEELKKLEKK([PEG12-X1])-NH2), with 0.35 nM.
